Several values for one entry are separate records, joined by “and”; a condition that tells them apart may be missing. Equal entries are not always repeated.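 Grown in 96-well plates, cells were treated for 48 hours with each compound at five concentrations. Insufficient inhibition: endpoint recorded as highest concentration tested. The concentration for full growth arrest is given as TGI.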
Columns and labels:
Assay in all cases: DTP human tumour cell line panel, 48 h
SK-MEL-2 melanoma = test system: SK-MEL-2 melanoma
MOLT-4 leukemia = test system: MOLT-4 leukemia
HOP-62 NSCLC = test system: HOP-62 NSCLC
HCT-15 colon = test system: HCT-15 colon
SNB-75 CNS = test system: SNB-75 CNS
M14 melanoma = test system: M14 melanoma
A498 renal = test system: A498 renal
SK-OV-3 ovarian = test system: SK-OV-3 ovarian
NCI-H522 lung = test system: NCI-H522 lung
SNB-19 CNS = test system: SNB-19 CNS
OVCAR-4 ovarian = test system: OVCAR-4 ovarian
MDA-MB-231 breast = test system: MDA-MB-231 breast
OVCAR-5 ovarian = test system: OVCAR-5 ovarian
HT29 colon = test system: HT29 colon
NCI-H23 lung = test system: NCI-H23 lung
786-0 renal = test system: 786-0 renal
SR leukemia = test system: SR leukemia
RXF 393 renal = test system: RXF 393 renal
UACC-257 melanoma = test system: UACC-257 melanoma
T-47D breast = test system: T-47D breast

Row | Compound | TGI (SK-MEL-2 melanoma) | TGI (MOLT-4 leukemia) | TGI (HOP-62 NSCLC) | TGI (HCT-15 colon) | TGI (SNB-75 CNS) | TGI (M14 melanoma) | TGI (A498 renal) | TGI (SK-OV-3 ovarian) | TGI (NCI-H522 lung) | TGI (SNB-19 CNS) | TGI (OVCAR-4 ovarian) | TGI (MDA-MB-231 breast) | TGI (OVCAR-5 ovarian) | TGI (HT29 colon) | TGI (NCI-H23 lung) | TGI (786-0 renal) | TGI (SR leukemia) | TGI (RXF 393 renal) | TGI (UACC-257 melanoma) | TGI (T-47D breast)
1 | CC(Oc1ccc(Oc2cnc3ccc(Cl)cc3n2)cc1)C(=O)O (stereo not given) | > 100 µM | > 100 µM | > 100 µM | > 100 µM | > 100 µM | > 100 µM | > 100 µM | > 100 µM | 99.4 µM and > 100 µM | > 100 µM | > 100 µM | > 100 µM | > 100 µM | > 100 µM | > 100 µM | > 100 µM | > 100 µM | > 100 µM | > 100 µM | > 100 µM
2 | Cc1ccc2nc3n[nH]c(N)c3nc2c1 | > 100 µM | > 100 µM | > 100 µM | > 100 µM | > 100 µM | > 100 µM | > 100 µM | > 100 µM | > 100 µM | > 100 µM | > 100 µM | > 100 µM | > 100 µM | > 100 µM | > 100 µM | > 100 µM | > 100 µM | > 100 µM | > 100 µM | > 100 µM
3 | C[C@H]1C2Cc3cc(O)ccc3[C@@]1(C)CCN2CCc1ccc(N)cc1 | > 100 µM | > 100 µM | 33.4 µM | 33.3 µM | > 100 µM | 32.4 µM | > 100 µM | > 100 µM | 36.2 µM | > 100 µM | > 100 µM | > 100 µM | > 100 µM | 31.9 µM | > 100 µM | 30.7 µM | 72.8 µM | > 100 µM | 36.5 µM | > 100 µM
4 | N#Cc1c(Cl)c2cccnc2n2c1nc1ccccc12 | 23.3 µM | 6.15 µM | > 56.1 µM | 3.82 µM | 15.4 µM | > 21.4 µM | 31.1 µM | 30 µM | 2.68 µM | 38.5 µM | 5.29 µM | 5.38 µM | 44.8 µM | 3.61 µM | 4.28 µM | 3.27 µM | 5.83 µM | 3.44 µM | 7.5 µM | 4.79 µM
5 | O=[N+]([O-])C(/C(Cl)=C(\Cl)Br)=C(/Cl)SCc1ccccc1 | 18.1 µM | 3.35 µM | 37.5 µM | 8.53 µM | 13.5 µM | 9.15 µM | 21.2 µM | 33.7 µM | 4.79 µM | 38.8 µM | 11.4 µM | 7.96 µM | 26.2 µM | 5.54 µM | 14.9 µM | 4.06 µM | 13.4 µM | 4.85 µM | 22.1 µM | 10.9 µM
6 | CC(C)=NOC(=O)CNC(=O)C(Cc1ccccc1)NC(=O)C(C)NC(=O)OC(C)(C)C (stereo not given) | > 100 µM | > 100 µM | > 100 µM | > 100 µM | > 100 µM | > 100 µM | > 100 µM | > 100 µM | > 100 µM | > 100 µM | > 100 µM | > 100 µM | > 100 µM | > 100 µM | > 100 µM | > 100 µM | > 100 µM | > 100 µM | > 100 µM | > 100 µM
7 | Cc1ccc(-c2c(-c3ccccc3)[nH]c(C)c2C(=O)ONC(=O)c2ccccc2)cc1 | 16.2 µM | 7.73 µM | 4.66 µM | 24.1 µM | 7.21 µM | 18 µM | 25.5 µM | 30 µM | 6.48 µM | 20.1 µM | 9.48 µM | 12.8 µM | 32.3 µM | > 42.4 µM | 17.4 µM | 12.6 µM | 5.36 µM | 5.83 µM | 27.3 µM | 19.9 µM
8 | COc1cc(/C=C2\C[C@H]3[C@@H]4CCC5=CC(=O)CC[C@]5(C)[C@H]4CC[C@]3(C)C2=O)cc(OC)c1OC | > 59.8 µM | > 100 µM | > 66.9 µM | > 100 µM | > 89.4 µM | > 42.5 µM | > 100 µM | > 100 µM | > 100 µM | > 100 µM | > 59.7 µM | > 100 µM | > 100 µM | > 100 µM | > 100 µM | > 100 µM | > 100 µM | > 100 µM | > 84.2 µM | 9.09 µM
